Experimental data as given in paper PMC10650714, “Double Attack to Oxidative Stress in Neurodegenerative Disorders: MAO-B and Nrf2 as Elected Targets” (Molecules, 2023).
Where “and” joins values, the source holds several entries; their conditions need not be identical. Equal entries are not always repeated. Entries after “also recorded” stand apart in the source; their conditions may differ. Where two headings read alike, the source gives them in different places.

Key:
recombinant hMAO-B = target: T1, recombinant hMAO-B (Homo sapiens, UniProt P27338); assay: hMAO-B activity assay (kynuramine, fluorimetric); format: biochemical; settings: for SI (selectivity index): calculated as hMAO-A Ki/hMAO-B Ki; for mechanism of hMAO-B inhibition: double reciprocal plots / global fit
T1 construct: purchased Fluka-Sigma-Aldrich s.r.l; (Italy); host or cells: Baculovirus infected BT1 cells
T1 sequence (P27338 1-520): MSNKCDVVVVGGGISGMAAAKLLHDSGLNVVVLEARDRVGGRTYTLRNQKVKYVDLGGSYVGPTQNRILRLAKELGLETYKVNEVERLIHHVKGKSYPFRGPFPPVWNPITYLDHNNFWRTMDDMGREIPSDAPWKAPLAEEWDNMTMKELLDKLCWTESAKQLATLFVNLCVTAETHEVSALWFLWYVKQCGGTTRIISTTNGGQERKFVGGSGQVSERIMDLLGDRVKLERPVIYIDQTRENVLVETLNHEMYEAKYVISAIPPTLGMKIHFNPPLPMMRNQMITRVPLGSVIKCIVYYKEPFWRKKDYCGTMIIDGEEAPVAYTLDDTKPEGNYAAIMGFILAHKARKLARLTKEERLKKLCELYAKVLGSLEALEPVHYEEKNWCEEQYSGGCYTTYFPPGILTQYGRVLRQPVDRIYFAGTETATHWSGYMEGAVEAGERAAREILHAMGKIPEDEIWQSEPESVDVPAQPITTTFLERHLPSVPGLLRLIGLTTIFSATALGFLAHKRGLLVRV
Protocol: Human recombinant hMAO-A and hMAO-B expressed in Baculovirus infected BT1 cells (5 mg/mL) and horseradish peroxidases were purchased from Fluka-Sigma-Aldrich s.r.l. (Italy). A Cary Eclipse fluorimeter (Varian Inc., Palo Alto, CA, USA) was used for fluorescence measurements. […] At first, the peroxidase-coupled continuous assay that detect the H2O2 generation rate was considered. It uses the Amplex Red reagent as the fluorogenic substrate for horseradish peroxidase.
By applying this method, hMAO activity assays were performed in K/Pi 0.1 M, EDTA 1 mM (total volume: 200 μL; pH 7.4, T = 37 °C), in the presence and in absence of various concentrations of the different compounds (0.2–20 μM and 2–50 μM in the case of hMAO–B and hMAO-A, respectively).
MAOs stock solutions were diluted with assay buffer in the presence or absence of the tested compound to obtain a final concentration of 0.005 mg/mL for MAO-A and 0.010 mg/mL for MAO-B; then, kynuramine (10–300 μM final concentration) was added to the assay solution. After 45–60 min of incubation at 37 °C, the reaction was stopped by the addition of 2 M NaOH (80 μL) and 480 μL of distilled water. Kynuramine deaminated by MAO spontaneously cyclizes to provide 4-hydroxyquinoline, the amount of which was determined by the fluorescence intensity of the peak of its emission spectra (λexc = 330 nm and λem 330–530 nm). Then, the rate of reaction was calculated using a specific calibration curve (in the presence of the same amount of the tested compound) built with the standard 4-hydroxyquinoline.
Under these experimental conditions, the Michaelis–Menten equation for rate of reaction, can be simplified as follows: V ≈ (Vmax/KM) [E]0[S]0 [49]. In the presence of an inhibitor, one or both the kinetic parameters, KM and Vmax, might be affected by its presence, depending on the inhibition mechanism. In particular, in the presence of a reversible inhibitor, both the kinetic parameters could be affected, and the apparent kinetic parameter would then become: KM I = KM,0 (1 + [I]/Ki)/(1 + [I]/(αKi)), and VmaxI = Vmax0/(1 + [I]/(αKi)), where α is the factor indicating how much the dissociation constant of the enzyme-substrate-I complex is different from that of the enzyme–I complex (also named Ki). Consequently, the ratio of the initial rate of reaction in the absence (Vo) and in the presence (VI) of the tested compound (Vo/VI) can be simplified to the ratio of (Vmax/KM)o/(Vmax/KM)I ≈ (1 + [I]/Ki).
To study the mechanism of inhibition, the steady-state kinetic parameters (Vmax and Km) of MAO-A and MAO-B were determined by performing experiments at different substrate concentrations and in the absence and presence of different concentrations of the tested compound. Vmax and Km were calculated by fitting the Michaelis–Menten equation to the experimental data (initial rate of reactions vs. substrate concentrations), with Sigma Plot software, version 9.0 (Jandel Scientific, San Rafael, CA, USA).

[1] = system: ROS production in HepG2 cells; assay: Intracellular ROS generation rate (DCF-DA); format: cell-based, human; settings: 5 µM, 30 min; for ROS generation rate (oxidation rate of DCF): both in the presence and absence of antimycin A (10 µM); for effect on antimycin A-induced ROS: antimycin A 10 µM
Protocol: Thus, on the basis of the hMAO-B inhibitory potency and on the Nrf2 nuclear translocation results, the most promising compounds 2 and 3 were chosen for the evaluation of their antioxidant activity in the human hepatic HepG2 cells, a valuable cellular system to assess antioxidant properties of the compounds [43, 44]. CAPE and pioglitazone were also tested as reference compounds. HepG2 cells were pre-loaded with dichlorofluorescein diacetate (DCF-DA), a fluorescent probe to detect ROS generation. […] Immediately, antimycin A (10 µM), an inhibitor of the complex III of the mitochondrial electron transport chain, was also added as an ROS inducer. The oxidation rate of DCF, that is, the generation rate of ROS, was detected for 30 min, and for each sample, the corresponding control was also run.
HepG2 cells (human hepatocellular carcinoma) were purchased from the American Type Culture Collection (ATCC HB-8065). Cells were grown in MEM (M0894, Merck Life Sciences S.r.l., Milan, Italy) supplemented with 2.2 g/L NaHCO3 (S5761, Merck Life Sciences S.r.l., Milan, Italy), 100 U/mL penicillin, 100 μg/mL streptomycin and 0.25 μg/mL amphotericin B (A5955, Merck Life Sciences S.r.l., Milan, Italy) and 10% foetal calf serum (F7524, Merck Life Sciences S.r.l., Milan, Italy). Cells were cultured at 37 °C in a humidified atmosphere incubator containing 5% carbon dioxide in air.
The intracellular production of ROS was detected via a fluorometric method using 2′,7′-dichlorofluorescein diacetate (D6883, Merck Life Sciences S.r.l., Milan, Italy) as probe. HepG2 cells (6 × 10^3/well) were seeded into a 96-well culture plate in 200 µL of a complete growth medium and incubated for 48 h in standard conditions. The medium was then removed, and cells were washed with 5 mM of PBS–glucose. Then, cells were loaded with 10 μM of 2′,7′-dichlorofluorescein diacetate in 5 mM of PBS–glucose at 37 °C in the dark for 20 min, washed with 5 mM of PBS–glucose, treated with the test compounds at indicated concentrations in 5 mM of PBS–glucose and then analysed. Fluorescence intensity was recorded for 30 min at λemx = 485 nm and λem = 527 nm, using a Victor X3 Multilabel plate reader (Perkin Elmer). The rate of ROS generation was calculated relative to untreated cells (controls) after subtraction of autofluorescence value. Results were presented as the mean values of at least three independent experiments performed with six replicates.

| SMILES | SI (selectivity index) (recombinant hMAO-B) | Ki (recombinant hMAO-B; hMAO-B Ki, kynuramine [S] = 10 µM, pH 7.4, 37 °C, mean ± S.D.) | ROS generation rate (oxidation rate of DCF) [1] | effect on antimycin A-induced ROS [1] | mechanism of hMAO-B inhibition (recombinant hMAO-B) | Ki (recombinant hMAO-B; global fit analysis, mixed inhibition model, read-out: KEI (inhibition constant for the free enzyme)) | Ki (recombinant hMAO-B; kynuramine [S] = 10 µM, pH 7.4, 37 °C, mean ± S.D., read-out: hMAO-B Ki) | Ki (recombinant hMAO-B; read-out: hMAO-B Ki) |
| --- | --- | --- | --- | --- | --- | --- | --- | --- |
| O=C(/C=C/c1ccc(O)c(O)c1)OCCc1ccccc1 [CAPE, caffeic acid phenethyl ester, reference compound] | 6.7 | 1.8 ± 0.2 µM | strongly reducing the oxidation rate of DCF | almost abolish the effect of antimycin A stimulus | – | – | – | – |
| O=C(/C=C/c1ccc(O)c(O)c1)Oc1ccc(CC2SC(=O)NC2=O)cc1 (stereo not shown) [Compound 2, 4-((2,4-Dioxothiazolidin-5-yl)methyl)phenyl (E)-3-(3,4-Dihydroxyphenyl)acrylate] | 66 | – | highest antioxidant potency; also recorded: significantly reduced cellular ROS content | almost abolish the effect of antimycin A stimulus | mixed inhibition | 0.45 ± 0.8 µM | 0.5 µM and 0.53 µM | 0.53 µM |
| CCc1ccc(CCOc2ccc(CC3SC(=O)NC3=O)cc2)nc1 (stereo not shown) [Pioglitazone, reference compound] | – | – | did not show any effect on the ROS generation rate | – | selective and competitive inhibitor | – | – | – |
